Test results as given in PMC8305076, “Comprehensive Evaluation of Biological Effects of Pentathiepins on Various Human Cancer Cell Lines and Insights into Their Mode of Action” (International Journal of Molecular Sciences, 2021).
Like-named read-outs stand apart in the source and are kept apart here.

Tests used:
Assay type in all cases: cell-based, human
HAP-1 and HAP-1.KO.GPx1 = experiment: DCFDA ROS assay with GSH added to the medium; settings: 25 µM pentathiepin plus 3 or 30 µM GSH in medium, 15 min
Method: As thiols are supposedly needed for the activation of the pentathiepins, the influence of additional glutathione added to the culture medium during treatment on the intracellular ROS levels was assessed. In these experiments, 3 or 30 µM of GSH were added to the medium containing 25 µM of pentathiepin or solvent, respectively (Figure 9).
In order to quantify intracellular ROS, we performed a flow cytometric assay based on the ROS-sensor 2′,7′-dichlorofluorescein diacetate (DCFDA). […] Per condition, 250,000 cells were seeded in 2 mL of medium per well of a 6-well plate and allowed to adhere overnight. For measurement of acute ROS, the cells were stained with 1 mL of a 20 µM DCFDA-PBS solution for 30 min under standard incubation conditions. […] After removing the solution and washing again with PBS, the cells were detached by using 0.5 mL of a diluted trypsin/EDTA-PBS solution (25%) and harvested with 1 mL of culture medium by carefully rinsing the wells. The cell suspension was transferred to 1.5 mL tubes, centrifuged for 5 min at 500× g, and washed with 1 mL of PBS. After removing the supernatant, each pellet was resuspended in 0.5 mL of PBS for measurement via the MACSquant Analyzer 10 at λEx/Em = 488/530 nm. Relative ROS levels resulting from treatment with pentathiepin were calculated by relating the fluorescence intensity of treated samples to the negative control. For the experiments covering periods of 24 and 48 h, the cells were incubated with the compounds first and stained with DCFDA afterwards. To assess the influence of additional GSH, we included 3 or 30 µM GSH to the medium containing 25 µM of pentathiepin, and the protocol was followed as described.

[1] = tested on: HAP-1, HAP-1.KO.GPx1, A2780 and Siso; experiment: adapted MTT assay with ferrostatin-1 (ferroptosis); parameters: key: no impact (0); weak impact (+); strong impact (++); settings: summary grade
Method: Not only apoptosis may contribute to the mainly ROS-based cytotoxicity of the pentathiepins but also ferroptosis, which derives from iron-dependent oxidative damage of the cell membrane. This form of programmed cell death is initiated via lipid peroxidation, which is normally held in check by the membrane-bound GPx4, an isoform of GPx1. As pentathiepins are potent GPx1 inhibitors, we indirectly investigated the possible role of GPx4 inhibition by precluding ferroptosis. Here, cells were incubated with a serial dilution of the respective pentathiepin, and either ferrostatin-1 (Fer-1) or vehicle control (DMSO) was added; Fer-1 is an established inhibitor of ferroptosis. The cell viability was measured after 48 h, and the activity of the compounds after adding or omitting Fer-1 was compared (Figure S50).
This experiment was performed similarly to that described in the previous section. To assess the importance of ferroptosis for cell death, a co-incubation of the cells with a serial dilution of the pentathiepins and ferrostatin-1 (Fer-1) as a known inhibitor of ferroptosis was performed. As negative control, the cells were incubated with the serial dilution of the test compounds and an amount of DMSO corresponding to the Fer-1 treatment solution. If ferroptosis were to be involved in the cytotoxicity of the compounds, the addition of Fer-1 should protect cells from the treatment with pentathiepin. […] The IC50 values were calculated as described above, and Fer-1-treated cells were set in relation to those without the additive.
Figure S50: Relative IC 50 in the four human cancer cell lines HAP -1, HAP -1.KO.GPx1, A2780 and Siso after treatment with pentathiepins 1-6 with either vehicle control (DMSO) or 1.5 or 6.0 µM ferrostatin -1 (Fer -1), respectively, for 48 h. The IC 50 of Fer-1-treated cells were relat ed to DMSO-treated samples (set to 1, dashed line) […]
(1 picture or pasted object on this page, not shown here)

MCF-7 = experiment: MTT cell viability assay
Method: Distinct MTT cell viability and crystal violet cell proliferation assays were performed to assess the cytotoxicity of the compounds 1–6 on 14 human cancer cell lines. In the viability assay, cells with intact mitochondria and thus active dehydrogenases are competent to convert MTT to the corresponding insoluble formazan. The formazan can be photometrically detected after solubilization and allows for indirect conclusions about the viability of the cells as an IC50 value. In the crystal violet assay, cells are stained by the binding of the dye to the chromatin, thus allowing for a quantification of biomass that remains adherent after a treatment in comparison with a control after a specific time. Potency is defined as the growth inhibitory concentration 50% (GI50).
In addition to performing the cell viability assay under normoxia (19% atmospheric oxygen), incubations were also conducted under hypoxic conditions, i.e., atmospheric oxygen levels of 1% during the treatment for 48 h. Hypoxia is a favorable condition of the tumor microenvironment that is connected with poor outcome. Therefore, the low oxygen condition mimics better the tumor environment. The biological effect of the pentathiepins under this condition provides insight into their dependency for oxygen, which has been postulated a key component in the proposed mechanism of action (Figure 3). Consistent with the proposed mechanism of action for five of the compounds, potency decreased under hypoxic conditions; in fact for 6, the half-maximal inhibitory concentration exceeded the highest tested concentration of 10 µM in four cell lines (Figure 6, Table S3). […] In contrast to the other compounds, in some cell lines, the cytotoxic effects of 1 were more pronounced under oxygen-reduced incubation conditions (Figure 6), indicating a tangential role of oxygen availability for this pentathiepin. Especially for the breast cancer cell line MCF-7, the cytotoxicity increased substantially, indicated by a decrease of the IC50 from >10.0 µM to about 1.0 µM.
The effect of the pentathiepins on the viability of the cell lines was assessed via an MTT assay, performed as previously described. Healthy and viable cells convert the yellow soluble 3-(4,5-dimethylthiazol-2-yl)-2,5-diphenyltetrazolium bromide to the insoluble purple corresponding formazan, which can be spectrophotometrically measured. For this assay, 5000 cells (1 250 for LCLC-103H) in 0.1 mL of medium were seeded per well of a 96-well plate and incubated at standard conditions for 24 h prior to treatment. A serial dilution of the test compounds was prepared in medium, covering final concentrations from 10.0 to 0.04 µM, and 0.1 mL of the working solution was added to each well in triplicate. After 48 h, 20 µL of a 2.5 mg/mL MTT in PBS solution was pipetted into each well and further incubated for 4 h at standard conditions. Thereafter, medium was replaced with 50 µL DMSO, and the plates were put on a shaker for 5 min and subsequently read at λ = 570 nm, with a SpectraMax 384plus (Molecular Devices, Sunnyvale, CA, USA). The cell viabilities of the treatment conditions were calculated in relation to a solvent control sample. The absolute IC50 was calculated via nonlinear regression followed by interpolation of the dose–response graphs in Prism 7 (GraphPad, San Diego, CA, USA). The IC90 was derived from the IC50 by using the slope factor of the dose–response graph with the tool QuickCalcs from GraphPad (GraphPad Software, San Diego, CA, USA).

[2] = Homo sapiens, MCF7, 48 h, hypoxic (1% O2), read-out: IC50 MTT-H mean
[3] = Homo sapiens, MCF7, 48 h, normoxic (19% O2), read-out: IC50 MTT-N mean

Compound | effect of added GSH on intracellular ROS (HAP-1 and HAP-1.KO.GPx1) | Ferroptosis [1] | IC50 (MCF-7; [2]) [µM] | IC50 (MCF-7; [3]) [µM] | IC50 (MCF-7; 48 h, hypoxic (1% O2), read-out: IC50 MTT-H mean) [µM]
CCOc1c2c(c3ccc(C(=O)N(CC)CC)cn13)SSSSS2 [Compound 4, 6-Ethoxy-N,N’-diethyl-[1,2,3,4,5]pentathiepino[6,7-a]indolizine-9-carboxamide] | an ascending trend was observed but not determined as statistically significant | 0 | 3.56 | 3.21 | –
CCOc1c2c(c3cnc4[nH]c(-c5ccc(OC)cc5)cc4n13)SSSSS2 [Compound 1, 11-Ethoxy-2-(4-methoxyphenyl)-3H-[1,2,3,4,5]pentathiepino[6′,7′:3,4]pyrrolo[1,2-a]pyrrolo[2,3-e]pyrazine] | No change was observed | 0 | ~1 | > 10 | 0.97
CCOc1c2c(c3ccc(C(=O)N4CCCCC4)cn13)SSSSS2 [Compound 2, (6-Ethoxy-[1,2,3,4,5]pentathiepino[6,7-a]indolizin-9-yl)(piperidinyl)methanone] | roughly doubling the effect of the compound alone | 0 | > 10 | 3.04 | –
CCOc1c2c(c3ccc(C(=O)N4CCOCC4)cn13)SSSSS2 [Compound 3, (6-Ethoxy-[1,2,3,4,5]pentathiepino[6,7-a]indolizin-9-yl)(morpholino)methanone] | tendency toward decreased oxidative stress | 0 | 3.56 | 1.68 | –
CCOc1c2c(c3ccc(C(=O)N4CCN(C(=O)c5ccc(F)cc5)CC4)cn13)SSSSS2 [Compound 5, (6-Ethoxy-[1,2,3,4,5]pentathiepino[6,7-a]indolizin-9-yl)(4-(4-fluorobenzoyl)piperazinyl)methanone] | roughly doubling the effect of the compound alone | 0 | 3.01 | 1.64 | –
CCOc1c2c(c3ccc(C(=O)N4CCN(S(=O)(=O)c5ccc(C)cc5)CC4)cn13)SSSSS2 [Compound 6, (6-Ethoxy-[1,2,3,4,5]pentathiepino[6,7-a]indolizin-9-yl)(4-tosylpiperazinyl)methanone] | tendency toward decreased oxidative stress | 0 | > 10 | 3.99 | –
